The NIST ThermoML archive (doi:10.1021/je060271a)
Values joined by “and” are separate entries in the source; they are usually repeats but may differ in a detail not shown here. Equal entries are not always repeated. ± gives the expanded uncertainty stated by the source.

Conditions: Liquid, Vibrating tube method

CCCCCCCC(=O)OCC(COC(=O)CCCCCCC)(COC(=O)CCCCCCC)COC(=O)CCCCCCC [pentaerythritol tetraoctanoate]
Conditions | mass density
303.16 K, 3376.5 kPa | 957.4 ± 1.2 kg/m3
303.16 K, 3390.8 kPa | 957.6 ± 1.2 kg/m3
303.16 K, 3405.4 kPa | 957.4 ± 1.2 kg/m3
303.16 K, 3418 kPa | 957.6 ± 1.2 kg/m3
303.16 K, 3432.9 kPa | 957.5 ± 1.2 kg/m3
303.16 K, 3447.8 kPa | 957.5 ± 1.2 kg/m3
303.16 K, 3460.5 kPa | 957.5 ± 1.2 kg/m3
303.16 K, 3475.7 kPa | 957.5 ± 1.2 kg/m3
303.16 K, 3490.8 kPa | 957.6 ± 1.2 kg/m3
303.16 K, 3504 kPa | 957.5 ± 1.2 kg/m3
303.16 K, 3519.7 kPa | 957.6 ± 1.2 kg/m3
303.16 K, 3535.3 kPa | 957.7 ± 1.2 kg/m3
303.16 K, 3548.8 kPa | 957.5 ± 1.2 kg/m3
303.16 K, 3564.8 kPa | 957.5 ± 1.2 kg/m3
303.16 K, 3593.9 kPa | 957.6 ± 1.2 kg/m3
303.16 K, 3609.8 kPa | 957.6 ± 1.2 kg/m3
303.16 K, 3626.1 kPa | 957.6 ± 1.2 kg/m3
303.16 K, 3640.3 kPa | 957.7 ± 1.2 kg/m3
303.16 K, 3656.9 kPa | 957.6 ± 1.2 kg/m3
303.16 K, 3671 kPa | 957.7 ± 1.2 kg/m3
303.16 K, 3688.1 kPa | 957.8 ± 1.2 kg/m3
323.14 K, 32674 kPa | 960.8 ± 1.2 kg/m3
323.14 K, 32807 kPa | 961 ± 1.2 kg/m3
323.15 K, 104.51 kPa | 940.7 ± 1.1 kg/m3
323.15 K, 104.52 kPa | 940.7 ± 1.1 kg/m3 and 940.6 ± 1.1 kg/m3
323.15 K, 105.05 kPa | 940.7 ± 1.1 kg/m3
323.15 K, 105.56 kPa | 940.7 ± 1.1 kg/m3
323.15 K, 107.29 kPa | 940.7 ± 1.1 kg/m3
323.15 K, 110.42 kPa | 940.7 ± 1.1 kg/m3
323.15 K, 119.65 kPa | 940.6 ± 1.1 kg/m3
323.15 K, 137.02 kPa | 940.6 ± 1.1 kg/m3
323.15 K, 166.4 kPa | 940.7 ± 1.1 kg/m3
323.15 K, 245.49 kPa | 940.7 ± 1.1 kg/m3
323.15 K, 268.79 kPa | 940.8 ± 1.1 kg/m3
323.15 K, 281.82 kPa | 940.8 ± 1.1 kg/m3
323.15 K, 299.57 kPa | 941 ± 1.1 kg/m3
323.15 K, 315.89 kPa | 940.9 ± 1.1 kg/m3
323.15 K, 333.79 kPa | 940.8 ± 1.1 kg/m3
323.15 K, 351.71 kPa | 940.9 ± 1.1 kg/m3
323.15 K, 362.82 kPa | 940.9 ± 1.1 kg/m3
323.15 K, 374.29 kPa | 940.8 ± 1.1 kg/m3
323.15 K, 388.88 kPa | 941 ± 1.1 kg/m3
323.15 K, 401.56 kPa | 941 ± 1.1 kg/m3
323.15 K, 413.39 kPa | 941 ± 1.1 kg/m3
323.15 K, 427.29 kPa | 940.9 ± 1.1 kg/m3
323.15 K, 439.11 kPa | 940.9 ± 1.1 kg/m3
323.15 K, 449.2 kPa | 941 ± 1.1 kg/m3
323.15 K, 461 kPa | 940.9 ± 1.1 kg/m3
323.15 K, 471.78 kPa | 941 ± 1.1 kg/m3
323.15 K, 482.73 kPa | 940.9 ± 1.1 kg/m3
323.15 K, 496.63 kPa | 940.9 ± 1.1 kg/m3
323.15 K, 509.14 kPa | 940.9 ± 1.1 kg/m3
323.15 K, 522.17 kPa | 941 ± 1.1 kg/m3
323.15 K, 538.51 kPa | 941.1 ± 1.1 kg/m3
323.15 K, 552.59 kPa | 941 ± 1.1 kg/m3
323.15 K, 567.71 kPa | 940.9 ± 1.1 kg/m3
323.15 K, 586.82 kPa | 941 ± 1.1 kg/m3
323.15 K, 621.05 kPa | 941 ± 1.1 kg/m3
323.15 K, 643.29 kPa | 941.1 ± 1.1 kg/m3
323.15 K, 663.11 kPa | 941 ± 1.1 kg/m3
323.15 K, 684.47 kPa | 941.1 ± 1.1 kg/m3
323.15 K, 711.74 kPa | 941 ± 1.1 kg/m3
323.15 K, 735.9 kPa | 941.1 ± 1.1 kg/m3
323.15 K, 761.44 kPa | 941.1 ± 1.1 kg/m3
323.15 K, 788.7 kPa | 941.2 ± 1.1 kg/m3
323.15 K, 806.43 kPa | 941.1 ± 1.1 kg/m3
323.15 K, 824.32 kPa | 941.2 ± 1.1 kg/m3
323.15 K, 839.78 kPa | 941.2 ± 1.1 kg/m3
323.15 K, 855.59 kPa | 941.1 ± 1.1 kg/m3
323.15 K, 972.85 kPa | 941.4 ± 1.1 kg/m3
323.15 K, 994.21 kPa | 941.3 ± 1.1 kg/m3
323.15 K, 1021.5 kPa | 941.4 ± 1.1 kg/m3
323.15 K, 1039.6 kPa | 941.3 ± 1.1 kg/m3
323.15 K, 1067.7 kPa | 941.3 ± 1.1 kg/m3
